Source: patent US20080131511A1, “Pharmaceutical Composition for Treatment of Tear and Salivary Fluid Drying” (Astellas Pharma, Inc., priority 2004, published 2008)
Where two headings read alike, the source gives them in different places.

Legend:
[1] = tested on: healthy male adult volunteers; assay: Phase I study, single oral administration: saliva secretion; assay type: in vivo, human; details: for Increase of saliva secretion (number of subjects with the symptom): healthy male adult volunteers, 6 subjects
Method: (§1) The compound A was orally administered once to healthy male adult volunteers, and saliva secretion action and pharmacokinetics were evaluated.
(§2) Drug administration to the volunteers was carried out by a blind method.
(§3) In order to observe the volunteers carefully, saliva quantity, sweating and pharmacokinetics (concentrations of unchanged compound A in plasma and urine) were periodically measured.

[2] = tested on: healthy male adult volunteers; assay: Phase I study, single oral administration: sweating; assay type: in vivo, human; details: for Sweating (number of subjects with the symptom): healthy male adult volunteers, 6 subjects
Method: as §1, §2, §3

[3] = Calculation of plasma concentration under stationary state (Css) and PT ratio from phase I data; parameters: species or system human; details: for concentration in plasma under stationary state (Css): calculated from AUC and T1/2 at 20 mg; for PT ratio (Cmax/Cmin): calculated
Source text: As described in the above, in order to increase secretion of salivary and tear fluid and to obtain effect of salivary gland and lacrimal gland cell growth, more sufficiently than usual, it is desirable to control drug release per unit hour of the compound A from a sustained release pharmaceutical preparation, and essentially, it is ideal to keep its effective concentration in human plasma for a predetermined period of time. The effective concentration of compound A in plasma under stationary state can be calculated using the AUC and disappearing half life obtained in the human clinical test, the aforementioned drug release per unit hour, distribution volume, disappearing rate constant and the like pharmacokinetic parameters.
An example of the method for calculating its concentration in plasma under stationary state (Css) is shown in the following.
They were 86.9, 172, 1380 and 2758 ng/ml. Though there is a possibility that it varies depending on the influences of specific difference, individual difference and the like various factors, when an example is cited, effective concentration of the compound A in plasma is 35 ng/ml in a lower case, based on the aforementioned calculation result and from the aforementioned valued calculated from Tables 7 and 8. This is preferably 50 ng/ml, more preferably 87 ng/ml, and further more preferably 170 ng/ml.
In addition, it is desirable to control a PT ratio (Cmax/Cmin) which is the ratio of maximum concentration of the compound A in plasma (Cmax) to its minimum concentration in plasma (Cmin). It is possible to calculate the PT ratio from Tmax and T1/2, and the calculation is carried out in the following manner.
This value means that the hour of T1/2 passed 5.5 times after Tmax, and (½)^5.5=1/45. Thus, the PT ratio becomes 45.
Also, when supposed as twice a day administration, (12−2)/4=2.5. In the same manner as in the above, (½)^2.5=1/5.7. Thus, the PT ratio is 5.7. In addition, when the same calculation is carried out based on the minimum value 3.4 h of T1/2 (showing the effect without perspiration),

[4] = Phase I study, single oral administration: pharmacokinetics in plasma; assay type: in vivo, human; details: for Tmax / AUC / half-life / Cmax: male
Method: as §1, §2, §3

[5] = phase I study, oral administration
[6] = human plasma, single oral 10 mg
[7] = human plasma, single oral 20 mg
[8] = human plasma, single oral 40 mg
[9] = human plasma, single oral 60 mg

C=C1CC2(CCN(C)CC2)O[C@H]1C [compound A, (−)-(S)-2,8-dimethyl-3-methylene-1-oxa-8-azaspiro[4.5]decane]
Increase of saliva secretion (number of subjects with the symptom) ([1]; single oral 5 mg): 0 | Increase of saliva secretion (number of subjects with the symptom) ([1]; single oral 10 mg): 2 | Increase of saliva secretion (number of subjects with the symptom) ([1]; single oral 20 mg): 2 | Increase of saliva secretion (number of subjects with the symptom) ([1]; single oral 60 mg): 5 | minimum dose by which increase of the salivary fluid secretion was observed [1, 5]: 10 mg | Sweating (number of subjects with the symptom) ([2]; single oral 5 mg): 0 | Sweating (number of subjects with the symptom) ([2]; single oral 10 mg): 1 | Sweating (number of subjects with the symptom) ([2]; single oral 20 mg): 0 | Sweating (number of subjects with the symptom) ([2]; single oral 40 mg): 0 | Sweating (number of subjects with the symptom) ([2]; single oral 60 mg): 5 | dose at which a side effect was found ([2]; human clinical test): 60 mg/individual | dose at which a side effect was not found ([2]; human clinical test): 40 mg/individual | maximum dose (single administration) by which sweating was not observed but the beneficial effect was observed [2, 5]: 40 mg | concentration in plasma under stationary state (Css) ([3]; release rate R=4.2 mg/h): 86.9 ng/mL | concentration in plasma under stationary state (Css) ([3]; release rate R=8.3 mg/h): 172 ng/mL | concentration in plasma under stationary state (Css) ([3]; release rate R=66.7 mg/h): 1380 ng/mL | concentration in plasma under stationary state (Css) ([3]; release rate R=133.3 mg/h): 2758 ng/mL | PT ratio (Cmax/Cmin) ([3]; once a day administration, T1/2 3.4 h): 90.5 | PT ratio (Cmax/Cmin) ([3]; once a day administration, Tmax 2, T1/2 4): 45 | PT ratio (Cmax/Cmin) ([3]; twice a day administration, T1/2 3.4 h): 7.5 | PT ratio (Cmax/Cmin) ([3]; twice a day administration, Tmax 2, T1/2 4): 5.7 | AUC0→∞ ([4]; human plasma, single oral 5 mg): 117.6 ± 41.5 ng/h/mL | AUC0→∞ [4, 6]: 180.5 ± 77.6 ng/h/mL | AUC0→∞ [4, 7]: 410.1 ± 106.8 ng/h/mL | AUC0→∞ [4, 8]: 1,010.1 ± 323.2 ng/hr/ml | AUC0→∞ [4, 9]: 1,482.3 ± 371.1 ng/hr/ml | Tmax ([4]; plasma, oral, human test result which used general tablets containing the compound A): ~2 h | AUC ([4]; plasma, oral, human, 20 mg administration): 410 ng·h/mL | half-life ([4]; plasma, oral, human, 20 mg administration, read-out: T1/2 (converted)): 3.38 h | AUC ([4]; plasma, human, 40 mg oral administration): 1010 ng·h/mL | Cmax ([4]; plasma, human, oral 10 mg): 35.3 ± 10.5 ng/mL | Cmax ([4]; plasma, human, oral 40 mg): 151 ± 24.1 ng/mL | Cmax ([4]; human plasma, single oral 5 mg): 19.8 ± 5.2 ng/mL | Tmax ([4]; human plasma, single oral 5 mg): 1.5 ± 0.55 h | half-life ([4]; human plasma, single oral 5 mg, read-out: T½ (converted)): 3.89 ± 0.81 h | Tmax [4, 6]: 1.17 ± 0.41 h | half-life ([4]; human plasma, single oral 10 mg, read-out: T½ (converted)): 3.42 ± 0.67 h | Cmax [4, 7]: 68.1 ± 13 ng/mL | Tmax [4, 7]: 2 ± 0.63 h | half-life ([4]; human plasma, single oral 20 mg, read-out: T½ (converted)): 3.88 ± 0.67 h | Tmax [4, 8]: 1.67 ± 0.82 h | half-life ([4]; human plasma, single oral 40 mg, read-out: T½ (converted)): 3.78 ± 0.59 h | Cmax [4, 9]: 266 ± 25.2 ng/mL | Tmax [4, 9]: 1.6 ± 0.55 h | half-life ([4]; human plasma, single oral 60 mg, read-out: T½ (converted)): 3.2 ± 0.79 h
